US8357653B2, “System and method for inhibiting cellular proliferation with tachykinins” (priority 2000, dated 2013)
pEC50: −log10 of the molar value. “And” between values parts separate entries of the source, which are not always exact repeats. Equal values may be shown once. Read-outs that look alike come from different tables or passages of the source. Ends that are not written are not given here. Peptide text beside a SMILES is read from it.

How the values were obtained:
[1] = tested on: Lewis lung carcinoma cells; test: in vivo tumorigenicity model, Lewis lung carcinoma in C57Bl/6 mice, intra-tumor injection; conditions: for tumor growth inhibition: Cisplatin group
Description: The inhibitory action of Sialokinin I and II, SEQ. ID. NO. 1 and NO. 2, against tumor tissue proliferation (Lewis lung carcinoma) was investigated. To test the efficacy of three different concentrations of peptide test articles in an in vivo tumorigenicity model using Lewis lung carcinoma cells.
Lewis lung carcinoma cells were obtained from ATCC and cultured in monolayers in DMEM supplemented with 10% heat-inactivated FBS, 4 mM L-glutamine, 100 μg/ml streptomycin and 100 units/ml penicillin for two passage cycles at 37° C. in 95% air and 5% CO2. Cells were harvested from subconfluent cultures by 60-second exposure to trypsin/EDTA, washed in serum free medium and brought to the correct concentration of cells in PBS.
On day 0, 35 female C57Bl/6 mice 6-8 weeks of age were shaved on the right lateral thorax and injected subcutaneously with 1.0×10^6 Lewis lung carcinoma cells. A total of 35 mice were injected so that 25 tumor-bearing mice with the correct tumor size could be used for the study. Tumors were allowed to develop for four days post cell injection at which time biweekly tumor measurements (L×W), in millimeters, were recorded for 3 weeks. […] The data are presented as mean tumor mass plotted over time.
When tumors reached a size of 100-200 mg, 25 mice were selected and randomly sorted into five groups. The five groups of Lewis lung tumor bearing mice were used to test three different test article concentrations.
The first group contained animals injected with the test article carrier as a control group. The control animals were injected with 50 μl intra-tumor injections of sterile saline and 1% bovine serum albumin (BSA), three times per week for a total of 5 doses. The control group contained mice that received the vehicle as a negative control.
The second group contained animals treated with 6 mg/kg of Cisplatin (Platinol; Bristol-Myers Squibb Co.) as a positive control administered according to manufacture's specifications by intravenous tail vein injection, every fourth day for a total of 3 doses. The Cisplatin group contained mice that received Cisplatin as a positive control.
The third group contained animals that received 5 μM of test article dissolved in sterile saline and 1% bovine serum albumin (BSA) injected intra-tumor with 50 μl injections, three times per week for a total of 5 doses.
The fourth group contained animals that received 10 μM of test article dissolved in sterile saline and 1% bovine serum albumin (BSA) injected intra-tumor with 50 μl injections, three times per week for a total of 5 doses.
The fifth group contained animals that received 100 μM of test article dissolved in sterile saline and 1% bovine serum albumin (BSA) injected intra-tumor with 50 μl injections, three times per week for a total of 5 doses.
Injections began on the day that animals were randomly sorted into one of five groups. Animals in the control, 5 μM, 10 μM, and 100 μM groups were dosed every other workday with an intra-tumor subcutaneous injection for a total of 5 doses. Tumor size was measured and recorded twice weekly using calipers. Mice were examined twice weekly for morbidity, and any abnormal findings were recorded. When tumors reached a mean target size of 1000 mg in control mice the animals were euthanized and two mice from each group were randomly selected and sent to necropsy for tumor and tissue collection. Mice were photographed before harvesting tumors and major organs (heart, lung, liver, kidney, spleen, GI tract and brain). No mice died while on study.

guinea pig ileum = conditions: read-out: K0.5; cited from earlier work
ASM cells = conditions: cited from earlier work; for proliferative response in ASM cells: dose range of 10^−12 to 10^−6M
spleen cell = conditions: 25 μg/ml of salivary gland extract, cited from earlier work
[2] = tested on: Lewis lung carcinoma cells; test: in vivo tumorigenicity model, Lewis lung carcinoma in immuno-compromised (nu/nu) mice, intravenous injection
Description: To test the efficacy of different concentrations of the Sialokinin peptides, test articles, SEQ. ID. NO. 1 and NO. 2, in an in vivo tumorigenicity model, a study was conducted with Lewis lung carcinoma in immuno-compromised (nu/nu) mice. Lewis lung carcinoma cells were cultured in Dulbecco's Modified Eagles Medium (DMEM), supplemented with 4 mM L-glutamine, 0.1 mM non-essential amino acids, 10% heat inactivated fetal bovine serum (FBS), […] Gentamicin and 250 μg/ml Fungizone. Cells were cultured in 5% CO2 and 95% air at 37° C. Exponentially growing cells were harvested and washed twice in phosphate buffered saline (PBS) to remove any traces of trypsin or serum. The washed cells were suspended in Hanks Balanced Salt Solution (HBSS) for injection.
Athymic nude mice were injected subcutaneously in the right lateral thorax with 10^4 Lewis lung carcinoma cells. A total of 38 mice were injected, with 33 tumor-bearing mice used in the study. When tumors reached a target window size of 100-200 mg, 33 tumor-bearing mice were randomly selected and sorted into one of three groups. Group 1 contained mice that received the test article carrier by an IV injection as a negative control. […]
Tumor measurements were recorded three times a week using calipers. […] Clinical observations on each mouse were done twice weekly for signs of toxicity and morbidity and any abnormal findings were recorded. […]

warts = test: human wart trial, subcutaneous injection into the wart; type: in vivo
Description: A trial was conducted to observe the anti-proliferative action of Sialokinins, SEQ. ID. NO. 1 and NO. 2, in the treatment of warts in a human application. This trial, conducted by a dermatologist, involved four volunteer human subjects who received two (2) subcutaneous injections of Sialokinin I and Sialokinin II into the wart. Injections of 100 μl of 5 μM were administered subcutaneously to each volunteer.
The warts chosen for this trial had been diagnosed as stable and thus any observable change in the size of the wart to the injections would be significant. […] Of the 3 patients, reductions in size of 19%, 79%, and 31% were observed. When no further treatments were administered, no further reductions were observed.

[3] = two 100 μl injections of 5 μM into the wart

N.N.[Cl][Pt][Cl] [Cisplatin]
body weight change ([1]; 6 mg/kg intravenous): significant weight loss
growth compared to control tumor growth ([1]; 6 mg/kg intravenous, day 7): 58%
growth compared to control tumor growth ([1]; 6 mg/kg intravenous, day 10): 93%
growth compared to control tumor growth ([1]; 6 mg/kg intravenous, day 15): 73%
tumor size compared to control group mice ([1]; 6 mg/kg intravenous, p<0.05): significantly smaller tumors
tumor growth inhibition ([1]; day 7): 42%
tumor growth inhibition ([1]; day 10): 7%
tumor growth inhibition ([1]; day 15): 27%

CSCC[C@H](NC(=O)[C@H](CC(C)C)NC(=O)CNC(=O)[C@H](Cc1ccc(O)cc1)NC(=O)[C@H](Cc1ccccc1)NC(=O)[C@H](CCCCN)NC(=O)[C@H](CC(=O)O)NC(=O)CNC(=O)[C@@H](NC(=O)[C@@H](N)CC(=O)O)[C@@H](C)O)C(N)=O [Sialokinin II, Asp^1-Thr^2-Gly^3-Asp^4-Lys^5-Phe^6-Tyr^7-Gly^8-Leu^9-Met^10-NH2] (H-DTGDKFYGLM-NH2)
pEC50 (guinea pig ileum): 8.29

Arg^1-Pro^2-Lys^3-Pro^4-Gln^5-Gln^6-Phe^7-Phe^8-Gly^9-Leu^10-Met^11-NH2 [Substance P]
pEC50 (guinea pig ileum): 8.31
concentration eliciting the maximum proliferative response (ASM cells; ASM cells): 10^−4 M
ASM cell number (ASM cells; concentration range of 10^−14 to 10^−4M): dose-dependent increases in ASM cell number

Asn^1-Thr^2-Gly^3-Asp^4-Lys^5-Phe^6-Tyr^7-Gly^8-Leu^9-Met^10-NH2 (NTGDKFYGLM-NH2; listed as Aedes aegypti) [SK1]
pEC50 (guinea pig ileum): 8.18
suppression of spleen cell proliferation (spleen cell; stimulated with IL-2, antigen activated cells): 39%
suppression of spleen cell proliferation (spleen cell; stimulated with IL-2, naïve cells): 66%
suppression of spleen cell proliferation (spleen cell; stimulated with IL-4, antigen activated cells): 27%
suppression of spleen cell proliferation (spleen cell; stimulated with IL-4, naïve cells): 39%
necropsy, toxicity or tissue necrosis ([2]; 200 μl intravenous injection of 5 μM and 10 μM): no detectable toxicity or tissue necrosis
weight loss in study animals ([2]; intravenous 5 μM and 10 μM, during the study period): No weight loss
side effects (warts; first clinical exposure, human): no side effects were detected
systemic symptoms (warts; two 100 μl injections of 5 μM): no systemic symptoms were detected
toxicity in trial subjects (warts; two 100 μl injections of 5 μM): no measured or observed toxicity
patients showing a reduction in wart size (warts; [3]): 3 of 4
reduction in wart size (individual patients) (warts; [3]): 19% and 79% and 31%

Asp^1-Met^2-His^3-Asp^4-Phe^5-Phe^6-Val^7-Gly^8-Leu^9-Met^10-NH2 (DMHDFFVGLM-NH2) [NKB]
proliferative response in ASM cells (ASM cells): Neither NKA nor NKB induced significant proliferative responses

His^1-Lys^2-Thr^3-Asp^4-Ser^5-Phe^6-Val^7-Gly^8-Leu^9-Met^10-NH2 (HKTDSFVGLM-NH2) [NKA]
proliferative response in ASM cells (ASM cells): Neither NKA nor NKB induced significant proliferative responses
ASM cell count (ASM cells; highest administered concentration of 10^−4M): relatively modest increase in ASM cell count
